Experimental data reported in patent publication US6552080B1, “Fungicidal compounds having a fluorovinyl-or fluoropropenyl-oxyphenyloxime moiety and process for the preparation thereof” (Korea Research Institute of Chemical Technology, priority 1999, dated 2003).

test system: Botrytis cinerae; experiment: Fungicidal activity against Cucumber Gray Mold Rot (CGM) disease; type: in vivo; settings: Cucumber Gray Mold Rot; concentration 50 ppm
Method: Botrytis cinerae, which was isolated from cucumber infected thereby, was inoculated on a PDA agar medium and cultured under a 12L/12D cycle at 25° C. for 15 days to form spore. The spores were scraped, filtered through a gauze and then suspended in potato dextrose liquid medium at a concentration of 1×10^6 spore/ml. The spore suspension was sprayed on a cucumber plant having one leaf. The cucumber plant was held in a humidified room at 20° C. for 3 days. L.A. on a leaf was measured to calculate an C.V.

Row | SMILES | CGM (Fungicidal Activities, C.V.)
1 | CON=C(C(=O)OC)c1ccccc1CON=Cc1cccc(OC(F)=Cc2ccc(Cl)cc2)c1 [Compound 28] | 9%
2 | COC=C(C(=O)OC)c1ccccc1CON=Cc1cccc(OC(F)=C(c2ccc(Br)cc2)C(F)(F)F)c1 [Compound 118] | 36%
3 | CON=C(C(=O)OC)c1ccccc1CON=C(C)c1cccc(OC(F)=Cc2cccc(OC)c2)c1 [Compound 71] | 25%
4 | CCCCc1ccc(C(=C(F)Oc2cccc(C(C)=NOCc3ccccc3C(=COC)C(=O)OC)c2)C(F)(F)F)cc1 [Compound 156] | 36%
5 | COC=C(C(=O)OC)c1ccccc1CON=C(C)c1cccc(OC(F)=Cc2ccc(OC)cc2)c1 [Compound 48] | 64%

test system: Pyricularia oryzae Carvara KA301; experiment: not given; type: in vivo; settings: Rice Blast; concentration 2 ppm

Row | SMILES | RCV (Fungicidal Activities, C.V.)
6 | CON=C(C(=O)OC)c1ccccc1CON=Cc1cccc(OC(F)=Cc2ccc(Cl)cc2)c1 [Compound 28] | 66%
7 | CON=C(C(=O)OC)c1ccccc1CON=C(C)c1cccc(OC(F)=Cc2cccc(OC)c2)c1 [Compound 71] | 100%
8 | COC=C(C(=O)OC)c1ccccc1CON=C(C)c1cccc(OC(F)=Cc2ccc(OC)cc2)c1 [Compound 48] | 41%

same assay, conditions: Rice Blast; concentration 10 ppm

Row | SMILES | RCV (Fungicidal Activities, C.V.)
9 | COC=C(C(=O)OC)c1ccccc1CON=C(C)c1cccc(OC(F)=Cc2ccc(OC)cc2)c1 [Compound 48] | 96%

same assay, conditions: Rice Blast; concentration 50 ppm

Row | SMILES | RCV (Fungicidal Activities, C.V.)
10 | CON=C(C(=O)OC)c1ccccc1CON=Cc1cccc(OC(F)=Cc2ccc(Cl)cc2)c1 [Compound 28] | 99%
11 | COC=C(C(=O)OC)c1ccccc1CON=Cc1cccc(OC(F)=C(c2ccc(Br)cc2)C(F)(F)F)c1 [Compound 118] | 33%
12 | CON=C(C(=O)OC)c1ccccc1CON=C(C)c1cccc(OC(F)=Cc2cccc(OC)c2)c1 [Compound 71] | 100%
13 | CCCCc1ccc(C(=C(F)Oc2cccc(C(C)=NOCc3ccccc3C(=COC)C(=O)OC)c2)C(F)(F)F)cc1 [Compound 156] | 33%
14 | COC=C(C(=O)OC)c1ccccc1CON=C(C)c1cccc(OC(F)=Cc2ccc(OC)cc2)c1 [Compound 48] | 100%

test system: Puccinia recondita; experiment: Fungicidal activity against Wheat Leaf Rust (WLR) disease; type: in vivo; settings: Wheat Leaf Rust; concentration 2 ppm

Row | SMILES | WLR (Fungicidal Activities, C.V.)
15 | CON=C(C(=O)OC)c1ccccc1CON=Cc1cccc(OC(F)=Cc2ccc(Cl)cc2)c1 [Compound 28] | 97%
16 | COC=C(C(=O)OC)c1ccccc1CON=Cc1cccc(OC(F)=C(c2ccc(Br)cc2)C(F)(F)F)c1 [Compound 118] | 91%
17 | CON=C(C(=O)OC)c1ccccc1CON=C(C)c1cccc(OC(F)=Cc2cccc(OC)c2)c1 [Compound 71] | 98%
18 | COC=C(C(=O)OC)c1ccccc1CON=C(C)c1cccc(OC(F)=Cc2ccc(OC)cc2)c1 [Compound 48] | 99%

same assay, conditions: Wheat Leaf Rust; concentration 10 ppm

Row | SMILES | WLR (Fungicidal Activities, C.V.)
19 | COC=C(C(=O)OC)c1ccccc1CON=Cc1cccc(OC(F)=C(c2ccc(Br)cc2)C(F)(F)F)c1 [Compound 118] | 98%
20 | CCCCc1ccc(C(=C(F)Oc2cccc(C(C)=NOCc3ccccc3C(=COC)C(=O)OC)c2)C(F)(F)F)cc1 [Compound 156] | 95%
21 | COC=C(C(=O)OC)c1ccccc1CON=C(C)c1cccc(OC(F)=Cc2ccc(OC)cc2)c1 [Compound 48] | 100%

same assay, conditions: Wheat Leaf Rust; concentration 50 ppm

Row | SMILES | WLR (Fungicidal Activities, C.V.)
22 | CON=C(C(=O)OC)c1ccccc1CON=Cc1cccc(OC(F)=Cc2ccc(Cl)cc2)c1 [Compound 28] | 100%
23 | COC=C(C(=O)OC)c1ccccc1CON=Cc1cccc(OC(F)=C(c2ccc(Br)cc2)C(F)(F)F)c1 [Compound 118] | 100%
24 | CON=C(C(=O)OC)c1ccccc1CON=C(C)c1cccc(OC(F)=Cc2cccc(OC)c2)c1 [Compound 71] | 100%
25 | CCCCc1ccc(C(=C(F)Oc2cccc(C(C)=NOCc3ccccc3C(=COC)C(=O)OC)c2)C(F)(F)F)cc1 [Compound 156] | 93%
26 | COC=C(C(=O)OC)c1ccccc1CON=C(C)c1cccc(OC(F)=Cc2ccc(OC)cc2)c1 [Compound 48] | 100%

test system: Phytophthora infestans; experiment: not given; type: in vivo; settings: Tomato Late Blight; concentration 2 ppm

Row | SMILES | TLB (Fungicidal Activities, C.V.)
27 | CON=C(C(=O)OC)c1ccccc1CON=Cc1cccc(OC(F)=Cc2ccc(Cl)cc2)c1 [Compound 28] | 50%
28 | CON=C(C(=O)OC)c1ccccc1CON=C(C)c1cccc(OC(F)=Cc2cccc(OC)c2)c1 [Compound 71] | 25%

same assay, conditions: Tomato Late Blight; concentration 50 ppm

Row | SMILES | TLB (Fungicidal Activities, C.V.)
29 | CON=C(C(=O)OC)c1ccccc1CON=Cc1cccc(OC(F)=Cc2ccc(Cl)cc2)c1 [Compound 28] | 38%
30 | COC=C(C(=O)OC)c1ccccc1CON=Cc1cccc(OC(F)=C(c2ccc(Br)cc2)C(F)(F)F)c1 [Compound 118] | 0%
31 | CON=C(C(=O)OC)c1ccccc1CON=C(C)c1cccc(OC(F)=Cc2cccc(OC)c2)c1 [Compound 71] | 50%
32 | CCCCc1ccc(C(=C(F)Oc2cccc(C(C)=NOCc3ccccc3C(=COC)C(=O)OC)c2)C(F)(F)F)cc1 [Compound 156] | 0%
33 | COC=C(C(=O)OC)c1ccccc1CON=C(C)c1cccc(OC(F)=Cc2ccc(OC)cc2)c1 [Compound 48] | 95%

test system: Rhizoctonia solani AG-1; experiment: Fungicidal activity against Rice Sheath Blight (RSB) disease; settings: Rice Sheath Blight; concentration 2 ppm

Row | SMILES | RSB (Fungicidal Activities, C.V.)
34 | CON=C(C(=O)OC)c1ccccc1CON=Cc1cccc(OC(F)=Cc2ccc(Cl)cc2)c1 [Compound 28] | 0%
35 | CON=C(C(=O)OC)c1ccccc1CON=C(C)c1cccc(OC(F)=Cc2cccc(OC)c2)c1 [Compound 71] | 35%

same assay, conditions: Rice Sheath Blight; concentration 50 ppm

Row | SMILES | RSB (Fungicidal Activities, C.V.)
36 | CON=C(C(=O)OC)c1ccccc1CON=Cc1cccc(OC(F)=Cc2ccc(Cl)cc2)c1 [Compound 28] | 50%
37 | COC=C(C(=O)OC)c1ccccc1CON=Cc1cccc(OC(F)=C(c2ccc(Br)cc2)C(F)(F)F)c1 [Compound 118] | 30%
38 | CON=C(C(=O)OC)c1ccccc1CON=C(C)c1cccc(OC(F)=Cc2cccc(OC)c2)c1 [Compound 71] | 100%
39 | CCCCc1ccc(C(=C(F)Oc2cccc(C(C)=NOCc3ccccc3C(=COC)C(=O)OC)c2)C(F)(F)F)cc1 [Compound 156] | 20%
40 | COC=C(C(=O)OC)c1ccccc1CON=C(C)c1cccc(OC(F)=Cc2ccc(OC)cc2)c1 [Compound 48] | 75%

test system: Erysiphae graminis; experiment: Fungicidal activity against Barley Powdery Mildew (BPM) disease; type: in vivo; settings: Barley Powdery Mildew; concentration 2 ppm

Row | SMILES | BPM (Fungicidal Activities, C.V.)
41 | CON=C(C(=O)OC)c1ccccc1CON=Cc1cccc(OC(F)=Cc2ccc(Cl)cc2)c1 [Compound 28] | 86%
42 | COC=C(C(=O)OC)c1ccccc1CON=Cc1cccc(OC(F)=C(c2ccc(Br)cc2)C(F)(F)F)c1 [Compound 118] | 88%
43 | CON=C(C(=O)OC)c1ccccc1CON=C(C)c1cccc(OC(F)=Cc2cccc(OC)c2)c1 [Compound 71] | 100%
44 | COC=C(C(=O)OC)c1ccccc1CON=C(C)c1cccc(OC(F)=Cc2ccc(OC)cc2)c1 [Compound 48] | 100%

same assay, conditions: Barley Powdery Mildew; concentration 10 ppm

Row | SMILES | BPM (Fungicidal Activities, C.V.)
45 | COC=C(C(=O)OC)c1ccccc1CON=Cc1cccc(OC(F)=C(c2ccc(Br)cc2)C(F)(F)F)c1 [Compound 118] | 96%
46 | CCCCc1ccc(C(=C(F)Oc2cccc(C(C)=NOCc3ccccc3C(=COC)C(=O)OC)c2)C(F)(F)F)cc1 [Compound 156] | 91%
47 | COC=C(C(=O)OC)c1ccccc1CON=C(C)c1cccc(OC(F)=Cc2ccc(OC)cc2)c1 [Compound 48] | 100%

same assay, conditions: Barley Powdery Mildew; concentration 50 ppm

Row | SMILES | BPM (Fungicidal Activities, C.V.)
48 | CON=C(C(=O)OC)c1ccccc1CON=Cc1cccc(OC(F)=Cc2ccc(Cl)cc2)c1 [Compound 28] | 95%
49 | COC=C(C(=O)OC)c1ccccc1CON=Cc1cccc(OC(F)=C(c2ccc(Br)cc2)C(F)(F)F)c1 [Compound 118] | 100%
50 | CON=C(C(=O)OC)c1ccccc1CON=C(C)c1cccc(OC(F)=Cc2cccc(OC)c2)c1 [Compound 71] | 100%
51 | CCCCc1ccc(C(=C(F)Oc2cccc(C(C)=NOCc3ccccc3C(=COC)C(=O)OC)c2)C(F)(F)F)cc1 [Compound 156] | 92%
52 | COC=C(C(=O)OC)c1ccccc1CON=C(C)c1cccc(OC(F)=Cc2ccc(OC)cc2)c1 [Compound 48] | 100%
